Consider 5 compounds from patent publication US6784185B2, “Pharmaceutically active compounds” (Pfizer Inc., priority 2001, dated 2004).

The assay addresses T1, cGMP-specific PDE (PDE5) (Homo sapiens, UniProt O76074).
T1 construct: obtained from human corpus cavernosum tissue or human platelets; from tissue; host or cells: human corpus cavernosum tissue or human platelets
Briefly: In vitro PDE inhibitory activity, cGMP PDE5. The class given is biochemical. As to conditions: enzyme from human corpus cavernosum tissue or human platelets; low substrate such that IC50≅Ki. On the procedure: The compounds of the present invention are potent and selective cGMP PDE5 inhibitors. In vitro PDE inhibitory activities against cyclic guanosine 3′,5′-monophosphate (cGMP) and cyclic adenosine 3′,5′-monophosphate (cAMP) phosphodiesterases were determined by measurement of their IC50 values (the concentration of compound required for 50% inhibition of enzyme activity).
The required PDE enzymes were isolated from a variety of sources, including human corpus cavernosum, human platelets, human cardiac ventricle, human skeletal muscle and human and canine retina, essentially by the method of W. J. Thompson and M. M. Appleman (Biochem., 1971, 10, 311). In particular, the cGMP-specific PDE (PDE5) and the cGMP-inhibited cAMP PDE (PDE3) were obtained from human corpus cavernosum tissue or human platelets; the cGMP-stimulated PDE (PDE2) was obtained from human corpus cavernosum or human platelets; the calcium/calmodulin (Ca/CAM)-dependent PDE (PDE1) from human cardiac ventricle; the cAMP-specific PDE (PDE4) from recombinant clone or human skeletal muscle; and the photoreceptor PDE (PDE6) from canine or human retina. Phosphodiesterases 7-11 were generated from full length human recombinant clones transfected into SF9 cells.
Assays were performed either using a modification of the “batch” method of W. J. Thompson et al. (Biochem., 1979, 18, 5228) or using a scintillation proximity assay for the direct detection of AMP/GMP using a modification of the protocol described by Amersham plc under product code TRKQ7090/7100. In summary, the effect of PDE inhibitors was investigated by assaying a fixed amount of enzyme in the presence of varying inhibitor concentrations and low substrate, (cGMP or cAMP in a 3:1 ratio unlabelled to [^3H]-labeled at a conc ˜1/2 Km) such that IC50≅Ki. The final assay volume was made up to 102 μl with assay buffer [20 mM Tris-HCl pH 7.4, 5 mM MgCl2, 1 mg/ml bovine serum albumin]. Reactions were initiated with enzyme, incubated for 30-60 min at 30° C. to give <30% substrate turnover and terminated with 50 μl yttrium silicate SPA beads (containing 3 mM of the respective unlabelled cyclic nucleotide for PDEs 3, 9 and 11). Plates were re-sealed and shaken for 20 min, after which the beads were allowed to settle for 30 min in the dark and then counted on a TopCount plate reader (Packard, Meriden, Conn.). Radioactivity units were converted to % activity of an uninhibited control (100%), plotted against inhibitor concentration and inhibitor IC50 values obtained using the ‘Fit Curve’ Microsoft Excel extension or in-house equivalent.
With `CCc1c2nc(-c3cc(C(C)=O)ccc3OCC(C)C)[nH]c(=O)c2nn1C1CN(C2CCC2)C1` [Example 2], half-maximal inhibition (IC50) required 13.8 nM.
Then `CCCCOc1ccc(C(C)=O)cc1-c1nc2c(CC)n(C3CN(C(C)C)C3)nc2c(=O)[nH]1` [Example 3], with 23 nM; and `CCCOc1ccc(C(C)=O)cc1-c1nc2c(CC)n(CC(=O)OC(C)(C)C)nc2c(=O)[nH]1` [Example 6], with 2.2 nM.
Then `CCCOc1ccc(C(C)=O)cc1-c1nc2c(CC)n(CCCC(=O)O)nc2c(=O)[nH]1` [Example 12, 4-[5-(5-Acetyl-2-propoxyphenyl)-3-ethyl-7-oxo-6,7-dihydro-2H-pyrazolo[4,3-d]pyrimidin-2-yl]butanoic Acid], with 1.8 nM; and `CCCOc1ccc(C(C)=O)cc1-c1nc2c(CC)n(CC(=O)N(C)C)nc2c(=O)[nH]1` [Example 13, 2-[5-(5-Acetyl-2-propoxyphenyl)-3-ethyl-7-oxo-6,7-dihydro-2H-pyrazolo[4,3-d]pyrimidin-2-yl]-N,N-dimethylacetamide], with 11.9 nM.
